Biological target: T1, human Glu-plasminogen (Homo sapiens, UniProt P00747)
T1 construct: human Glu-plasminogen; purchased Chromogenix, Italy
Assay: Clot-lysis buffer assay
Assay type: biochemical
Protocol: The assay method used for evaluating biological activity of the compounds according to the invention was Clot-lysis buffer assay.
Tested substance were added to the reaction mixture in 10% DMSO. Reaction was started by the addition of thrombin.
Measured according to the Clot-lysis buffer assay described above.

T1 sequence (P00747 20-810 limits assumed): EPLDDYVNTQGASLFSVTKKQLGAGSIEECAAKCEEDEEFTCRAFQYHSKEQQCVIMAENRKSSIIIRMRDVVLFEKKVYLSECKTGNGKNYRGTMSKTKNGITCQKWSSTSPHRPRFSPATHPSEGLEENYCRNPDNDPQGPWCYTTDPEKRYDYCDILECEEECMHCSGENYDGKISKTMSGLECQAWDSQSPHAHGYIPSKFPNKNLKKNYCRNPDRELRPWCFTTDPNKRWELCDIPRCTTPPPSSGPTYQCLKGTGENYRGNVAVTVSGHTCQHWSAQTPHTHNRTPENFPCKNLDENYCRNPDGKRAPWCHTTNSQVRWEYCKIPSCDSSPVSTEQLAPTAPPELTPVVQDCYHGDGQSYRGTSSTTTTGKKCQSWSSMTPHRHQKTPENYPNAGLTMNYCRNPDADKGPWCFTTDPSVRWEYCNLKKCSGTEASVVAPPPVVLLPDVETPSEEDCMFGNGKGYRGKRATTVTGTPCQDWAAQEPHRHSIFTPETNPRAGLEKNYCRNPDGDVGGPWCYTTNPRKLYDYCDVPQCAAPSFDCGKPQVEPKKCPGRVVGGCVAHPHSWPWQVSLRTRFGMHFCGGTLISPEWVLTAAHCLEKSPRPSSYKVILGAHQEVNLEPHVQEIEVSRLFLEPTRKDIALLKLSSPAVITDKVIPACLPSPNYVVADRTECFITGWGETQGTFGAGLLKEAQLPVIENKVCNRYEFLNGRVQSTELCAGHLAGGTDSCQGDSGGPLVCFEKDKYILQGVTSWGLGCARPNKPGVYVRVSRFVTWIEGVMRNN

IC50 [µM] | SMILES
5.9 | O=c1cc([C@@H]2CCN[C@@H](CC3CCC(F)(F)CC3)C2)o[nH]1 (relative stereo) [Example 91, 5-(Trans-2-((4,4-difluorocyclohexyl)methyl)piperidin-4-yl)isoxazol-3(2H)-one]
97.3 | CS(=O)(=O)c1ccc(C2CC(c3cc(=O)[nH]o3)CCN2)cc1 (stereo not drawn) [Example 39, 5-((Trans-2-(4-(methylsulfonyl)phenyl)piperidin-4-yl)isoxazol-3(2H)-one]
1.43 | O=c1cc([C@H]2CCN[C@@H](c3ccc(C(F)(F)F)cc3)C2)o[nH]1 [Example 33, 5-((2R,4S)-2-(4-(Trifluoromethyl)phenyl)piperidin-4-yl)isoxazol-3(2H)-one]
102 | O=c1cc([C@@H]2CCN[C@H](CC3CCC(F)(F)CC3)C2)o[nH]1 [Example 90, 5-((2R,4R)-2-((4,4-Difluorocyclohexyl)methyl)piperidin-4-yl)isoxazol-3(2H)-one]
1.6 | CC(C)(C[C@H]1C[C@@H](c2cc(=O)[nH]o2)CCN1)c1ccccc1 [Example 19, 5-((2R,4S)-2-(2-Methyl-2-phenylpropyl)piperidin-4-yl)isoxazol-3(2H)-one]

Source: US8415378B2, “Isoxazol-3(2H)-one analogs as therapeutic agents” (AstraZeneca AB, priority 2009, dated 2013)
